Each structure is given as a SMILES string.

This passage reports IC50 results from article PMC5586502 (Bioorganic & medicinal chemistry letters, 2017).

The test system of this assay is COX-1/2 (mixed COX-1 and COX-2). Kind of assay: COX. It counts as biochemical, ovine/human. As to conditions: read-out: IC50 against COX-1/2; suggested from ~37% inhibition at 100 µM.

On to `COc1ccc(N(Nc2ccc(Br)cc2)c2ccccc2N(Nc2ccc(Br)cc2)c2ccccc2OC)cc1` [Compound 6], for which the IC50 is > 100 µM.
